This is an account of results in ChEMBL document CHEMBL1687706, “Inhibition of human immunodeficiency virus type 1 replication in human cells by Debio-025, a novel cyclophilin binding agent” (Antimicrob Agents Chemother, 2008).

Data set [1] has as its system Human papillomavirus type 16. In words: Antiviral activity against HPV-16 infected in Caski cells assessed as inhibition of viral replication after 7 days. The format is functional, Human papillomavirus 16.
In data set [2] the test system is Human immunodeficiency virus 1. The data set is described as follows: microbe, parasite or virus in culture. To be noted: Human immunodeficiency virus 1, 3B, MT4.
For data set [3], the system named is Vesicular stomatitis virus. The data set is described as follows: Antiviral activity against VSV infected in human embryonic lung cells assessed as inhibition of viral replication. It counts as functional, organism-based.
Data set [4] relates to Human alphaherpesvirus 1. In words: Antiviral activity against Herpes simplex virus 1 KOS infected in human embryonic lung cells assessed as inhibition of viral replication. It counts as functional, organism-based. To be noted: Human alphaherpesvirus 1, KOS.
Data set [5] relates to Human papillomavirus type 16. The data set is described as follows: Antiviral activity against HPV-16 infected in Caski cells assessed as inhibition of viral replication after 3 days. The format is functional, organism-based, Human papillomavirus 16. To be noted: Human papillomavirus 16, Ca-Ski, 72 h.
The subject of data set [6] is Rattus norvegicus. The data set is described as follows: Immunosuppressive activity in Sprague-Dawley rat KHL model assessed as percent cytotoxic T cells at 10 mg/kg, po administered once daily for 28 days by flow cytometry. It counts as functional, T-cell.
The subject of data set [7] is Influenza A virus. In words: Antiviral activity against Influenza A virus H1N1 infected in MDCK cells assessed as inhibition of viral replication. The format is functional, organism-based.
The test system of data set [8] is Rattus norvegicus. In words: Immunosuppressive activity in Sprague-Dawley rat […] model assessed as percent T lymphocytes at 10 mg/kg, po administered once daily for 28 days by flow cytometry. The format is functional.
For data set [9], the system named is Human alphaherpesvirus 2. The data set is described as follows: Antiviral activity against Herpes simplex virus 2 G infected in human embryonic lung cells assessed as inhibition of viral replication. Conditions: Human alphaherpesvirus 2, strain G. It counts as functional, organism-based.
The test system of a further data set is Hepatitis C virus. In words: Antiviral activity against HCV infected in human Huh 5.2 cells assessed as reduction in viral RNA level by luciferase reporter gene assay. The format is functional, organism-based, Hepacivirus hominis. To be noted: Huh-5-2.
For the next data set, the system named is Yellow fever virus. The data set is described as follows: Antiviral activity against Yellow fever virus 17D infected in african green monkey Vero cells assessed as inhibition of viral replication. It counts as functional, cell-based.
In data set [10] the test system is Human alphaherpesvirus 2. The data set is described as follows: Antiviral activity against Herpes simplex virus 2 196 infected in human embryonic lung cells assessed as inhibition of viral replication. The format is functional, organism-based. To be noted: Human alphaherpesvirus 2, 196, lung.
The subject of data set [11] is Rattus norvegicus. In words: Immunosuppressive activity in Sprague-Dawley rat […] model assessed as percent T-helper cells at 10 mg/kg, po administered once daily for 28 days by flow cytometry. The format is functional.
In data set [12] the test system is Human immunodeficiency virus 1. Conditions: Human immunodeficiency virus 1, 3B.
Data set [13] has as its system Human respiratory syncytial virus. In words: Antiviral activity against RSV infected in human HeLa cells assessed as inhibition of viral replication.
Data set [14] concerns Human alphaherpesvirus 1. In words: Antiviral activity against Herpes simplex virus 1 McIntyre infected in human embryonic lung cells assessed as inhibition of viral replication. It counts as functional, organism-based. Conditions: Human alphaherpesvirus 1, McIntyre.
The subject of data set [15] is Influenza A virus. In words: Antiviral activity against Influenza A virus H3N2 infected in MDCK cells assessed as inhibition of viral replication. It counts as functional, organism-based.
For a further data set, the system named is Influenza B virus. The data set is described as follows: Antiviral activity against influenza B virus infected in MDCK cells assessed as inhibition of viral replication. It counts as functional, organism-based.
Data set [16] deals with Human alphaherpesvirus 2. The data set is described as follows: Antiviral activity against Herpes simplex virus 2 Lyons infected in human embryonic lung cells assessed as inhibition of viral replication. Conditions: Human alphaherpesvirus 2, Lyons. The format is functional, organism-based.
The test system of data set [17] is Human immunodeficiency virus 1. In words: microbe, parasite or virus in culture. To be noted: Human immunodeficiency virus 1, SF2.
Data set [18] relates to Bovine viral diarrhea virus 1. In words: Antiviral activity against BVDV infected in […] cells assessed as inhibition of viral replication. The format is functional, organism-based. Conditions: Bovine viral diarrhea virus isolates and strains.
Data set [19] has as its system Human betaherpesvirus 5. The data set is described as follows: Antiviral activity against Human cytomegalovirus Davis infected in human embryonic lung cells assessed as reduction in viral yield. It counts as functional, organism-based. To be noted: Human betaherpesvirus 5, Davis.
Data set [20] deals with Human betaherpesvirus 5. In words: Antiviral activity against Human cytomegalovirus AD169 infected in human embryonic lung cells assessed as reduction in viral yield. It counts as functional, organism-based. Conditions: Human betaherpesvirus 5, AD169, lung.
For a further data set, the system named is Human alphaherpesvirus 3. The data set is described as follows: Antiviral activity against VZV OKA infected in human embryonic lung cells assessed as inhibition of. Conditions: Human alphaherpesvirus 3, OKA. The format is functional, organism-based.
The next data set has as its system Vaccinia virus. The data set is described as follows: Antiviral activity against Vaccinia virus infected in human embryonic lung cells assessed as reduction in viral yield measured after 3 days. The format is functional, organism-based. Conditions: Orthopoxvirus vaccinia, 72 h.
The next data set concerns Coxsackievirus. The data set is described as follows: Antiviral activity against Coxsackie B3 infected in african green monkey Vero cells assessed as inhibition of viral replication. It counts as functional, organism-based.
A further data set deals with Feline coronavirus. In words: Antiviral activity against Feline coronavirus infected in CRFK assessed as inhibition of viral replication. Conditions: Alphacoronavirus 1, CRFK. It counts as functional, organism-based.
The test system of the next data set is SARS-CoV. The data set is described as follows: Antiviral activity against SARS coronavirus infected in african green monkey Vero cells assessed as inhibition of viral replication. To be noted: Severe acute respiratory syndrome-related coronavirus. The format is functional, organism-based.
Data set [21] relates to Human alphaherpesvirus 1. In words: Antiviral activity against Herpes simplex virus 1 F infected in human embryonic lung cells assessed as inhibition of viral replication. To be noted: Human alphaherpesvirus 1, strain F. The format is functional, organism-based.
Data set [22] has as its system Rattus norvegicus. In words: Immunosuppressive activity in Sprague-Dawley rat […] model assessed as IgM level at 10 mg/kg, po administered once daily for 28 days by ELISA. It counts as functional.
The subject of another data set is MT4. In words: Cytotoxicity against human MT4 cells at 0.83 uM by MTT assay. It counts as cell-based. Conditions: mt4, 0.83 µM.
Another data set deals with PBMC. The data set is described as follows: Cytotoxicity against human PBMC at 0.83 uM by MTT assay. The format is cell-based.
The next data set relates to Jurkat. The data set is described as follows: Immunosuppressive activity in human Jurkat cells assessed as inhibition of PHA-phorbol myristate acetate induced beta-galactosidase activity at 6.75 uM. It counts as functional, cell-based.

Calls of active or inactive are those of the source. The calls are words filed in the database; no cut-off is given here. Bounds are passed on as bounds.

For the compound `C/C=C/C[C@@H](C)[C@@H](O)[C@H]1C(=O)N[C@@H](CC)C(=O)N(C)CC(=O)N(C)[C@@H](CC(C)C)C(=O)N[C@@H](C(C)C)C(=O)N(C)[C@@H](CC(C)C)C(=O)N[C@@H](C)C(=O)N[C@H](C)C(=O)N(C)[C@@H](CC(C)C)C(=O)N(C)[C@@H](CC(C)C)C(=O)N(C)[C@@H](C(C)C)C(=O)N1C` [CYCLOSPORINE], the TC50 in data set [1] came to 0.3 µM. Moreover, the IC50 was greater than 0.83 µM in data set [2]; greater than 8.3 µM in data set [3]; greater than 8.3 µM in the data set with Human alphaherpesvirus 1 [4]; 0.4 µM in data set [5]; greater than 14.8 µM with Influenza A virus [7]; greater than 8.3 µM with Human alphaherpesvirus 2 [9]. Besides, the IC50 in the data set with Hepatitis C virus is 2.3 µM; in the data set on Yellow fever virus it was greater than 16.6 µM; in the data set on Human alphaherpesvirus 2 [10], greater than 8.3 µM; in data set [12], 0.45 µM; in data set [13], greater than 8.3 µM; with Human alphaherpesvirus 1 [14], greater than 8.3 µM. Also, the IC50 in the data set on Influenza A virus [15] was greater than 14.8 µM; in the data set on Influenza B virus it was greater than 14.8 µM; in the data set on Human alphaherpesvirus 2 [16], greater than 8.3 µM; in [17] it was 0.54 µM; in [18], greater than 9.9 µM; with Human betaherpesvirus 5 [19], greater than 18.3 µM. For the same compound, the IC50 with Human betaherpesvirus 5 [20] was greater than 18.3 µM; with Human alphaherpesvirus 3, 3.3 µM; in the data set on Vaccinia virus it was greater than 8.3 µM; in the data set on Coxsackievirus, greater than 25 µM; in the data set with Feline coronavirus it was 1.5 µM; with SARS-CoV, greater than 8.3 µM. The IC50 with Human alphaherpesvirus 1 [21] was greater than 8.3 µM. Further, the Activity in the data set on Rattus norvegicus [6] is listed as 9.2%; in the data set on Rattus norvegicus [8], 33.6%; in the data set with Rattus norvegicus [11], 23.1%. The deltaA with Rattus norvegicus [22] is reported as 0.18.

With `C/C=C/C[C@@H](C)[C@@H](O)[C@H]1C(=O)N[C@@H](CC)C(=O)N(C)CC(=O)N(C)[C@@H]([C@@H](C)CC)C(=O)N[C@@H](C(C)C)C(=O)N(C)[C@@H](CC(C)C)C(=O)N[C@@H](C)C(=O)N[C@H](C)C(=O)N(C)[C@@H](CC(C)C)C(=O)N(C)[C@@H](CC(C)C)C(=O)N(C)[C@@H](C(C)C)C(=O)N1C` [NIM811], the IC50 in data set [2] came out at 0.31 µM; in data set [12] it was 0.47 µM; in [17], 0.5 µM. For the same compound, the Activity entry in the data set on MT4 and with PBMC was “Non-toxic” throughout. Besides, the inhibition result in the data set on Jurkat is “Active”.
